≈ marks a conversion by molar mass, not a printed value. Like-named read-outs stand apart in the source and are kept apart here.

Common to all, as to assay: microbe, parasite or virus in culture
For one test, the system named is C. neoformans. Format: cell-based, Cryptococcus neoformans. An excerpt:
(§1) Microbial strains: Microbial strains were procured from National Culture Collection of Pathogenic Fungi (NCCPF) at the Postgraduate Institute of Medical Education & Research (PGIMER), Chandigarh and Microbial Type Culture Collection and Gene bank (MTCC) at the Institute of Microbial Technology (IMTECH), Chandigarh, India. Peptides were screened against five different strains of fungi: viz. Candida albicans (NCCPF400034), Candida glabrata (MTCC 3019), Candida parapsilosis (NCCPF 440002), Candida krusei (NCCPF 440002) and Cryptococcus neoformans (NCCPF250316), and five strains of bacteria: viz. Escherichia coli (MTCC 2961), Staphylococcus aureus (MTCC 3160), Enterococcus faecalis (MTCC 439), Streptococcus pyogenes (MTCC 442) and Pseudomonas aeruginosa (MTCC 3542).
(§2) Growth media: Antifungal susceptibility testing was carried out using standard broth microdilution assays as per the Clinical and Laboratory Standards Institute (CLSI) guidelines for fungi. RPMI 1640 (Sigma), yeast extract, peptone and dextrose (YPED, Himedia) were used as the incubation broths. The cells were diluted to a cell density of 10^3 colony forming unit (CFU/mL) and incubated at 30 °C for 48 h. Furthermore, Muller Hinton (Himedia) media was utilized for bacterial strains and antibacterial activity was evaluated per CLSI guidelines for bacteria. Bacterial cells were diluted to a cell density of 10^5 CFU/mL and incubated at 37 °C for 24 h. Amphotericin B (Himedia, India) and rifampicin (Himedia, India) were used as standard drugs for the evaluation of activity against all the fungal and bacterial strains, respectively.
(§3) The stock solutions of peptides (2 mg/mL) were prepared in DMSO. Specific amounts of peptide from stock solution were added to a 96-well microtiter plate containing 100 μL of growth media and then serially diluted two-fold. A further 100 μL of growth media containing microbial cells were added to each well and incubated at 30–37 °C for 24–48 h. The optical density (OD) was measured at 600 nm using a BioStack Ready (BioTek Instruments, Winooski, VT, USA) microplate reader to analyze microbial growth inhibition, and IC50 and MIC values were calculated. To visualize the growth and inhibition pattern, a solution of 3-(4,5-dimethylthiazol-2-yl)-2,5-diphenyltetrazolium bromide (MTT) in water was added to the plate and incubated for 2–3 h. MTT reacts with the mitochondrial dehydrogenases, which are present only in a viable cell, to give blue colored formazan crystals. Therefore, a darker color indicates a high number of viable cells; however, non-viable cells appear pale or colorless.

Another test relates to C. albicans. Type of test: cell-based, Candida albicans. The settings on record: 48 h.
From the text: as §1, §2, §3

Another test concerns C. glabrata. Type of test: cell-based, Candida glabrata. The settings on record: 48 h.
From the text: as §1, §2, §3

Another test deals with C. parapsilosis. Format: cell-based, Candida parapsilosis. The settings on record: 48 h.
From the text: as §1, §2, §3

In another test the test system is C. krusei. Type of test: cell-based, Candida krusei. The conditions noted are these: 48 h.
From the text: as §1, §2, §3

In another test the test system is E. faecalis. Format: cell-based, Enterococcus faecalis.
Another test concerns S. aureus. Format: cell-based, Staphylococcus aureus.
From the text: as §1
as §2, with “Bacterial cells were diluted to a cell density of 10^5 CFU/mL and incubated at 37 °C for 24 h.” left out
as §3

The subject of the next test is S. pyogens. Format: cell-based, Streptococcus pyogenes.
The test system of another test is E. coli. Format: cell-based, Escherichia coli.
From the text: as §1
as §2, with “Bacterial cells were diluted to a cell density of 10^5 CFU/mL and incubated at 37 °C for 24 h.” left out
as §3

In the next test the test system is P. aeruginosa. Type of test: cell-based, Pseudomonas aeruginosa.

As for `COC(=O)[C@H](Cc1ncn(Cc2ccc(C(C)(C)C)cc2)c1I)NC(=O)[C@@H](N)Cc1c[nH]c2ccccc12` [10b], the IC50 in the test on C. neoformans (48 h) is 5.15 µg/mL (≈ 8.21 µM); with C. albicans, more than 35.2 µg/mL; in the test with C. glabrata, more than 35.2 µg/mL; with C. parapsilosis, more than 35.2 µg/mL; in the test with C. krusei it was more than 35.2 µg/mL; in the test on E. faecalis (48 h) it was more than 35.2 µg/mL. The IC50 with S. aureus (48 h) was 35.2 µg/mL (≈ 56.1 µM); with S. pyogens (48 h) it was more than 35.2 µg/mL; in the test with E. coli (48 h), 35.2 µg/mL (≈ 56.1 µM); in the test on P. aeruginosa (48 h), more than 35.2 µg/mL. Besides, the MIC was more than 64.0 µg/mL in the test on C. albicans; more than 64.0 µg/mL in the test with C. glabrata; more than 64.0 µg/mL with C. parapsilosis; more than 64.0 µg/mL in the test on C. krusei; more than 64.0 µg/mL against E. faecalis (48 h); 64.0 µg/mL (≈ 102 µM) in the test with S. aureus (48 h). Besides, the MIC with S. pyogens (48 h) is more than 64.0 µg/mL; against E. coli (48 h), 64.0 µg/mL (≈ 102 µM); in the test with P. aeruginosa (48 h), more than 64.0 µg/mL.

On to `COC(=O)[C@H](Cc1ncn(Cc2ccc(C(C)C)cc2)c1I)NC(=O)[C@@H](N)Cc1c[nH]c2ccccc12` [10c], for which the IC50 in the test with C. neoformans (48 h) is 8.81 µg/mL (≈ 14.4 µM); with C. albicans, more than 35.2 µg/mL; in the test with C. glabrata it was more than 35.2 µg/mL; in the test with C. parapsilosis, more than 35.2 µg/mL; in the test with C. krusei it was more than 35.2 µg/mL; in the test with E. faecalis (48 h), more than 35.2 µg/mL. Moreover, the IC50 with S. aureus (48 h), with S. pyogens (48 h), in the test on E. coli (48 h) and in the test on P. aeruginosa (48 h) was more than 35.2 µg/mL each time. Moreover, the MIC with C. neoformans (48 h) was 16.02 µg/mL (≈ 26.1 µM); against C. albicans, more than 64.0 µg/mL; against C. glabrata, more than 64.0 µg/mL; in the test on C. parapsilosis, more than 64.0 µg/mL; in the test with C. krusei, more than 64.0 µg/mL; with E. faecalis (48 h) it was more than 64.0 µg/mL. In addition, the MIC in the test with S. aureus (48 h), against S. pyogens (48 h), in the test on E. coli (48 h) and against P. aeruginosa (48 h) was more than 64.0 µg/mL each time.

As for `COC(=O)[C@H](Cc1ncn(Cc2cccc(F)c2)c1I)NC(=O)[C@H](Cc1c[nH]c2ccccc12)NC(=O)OC(C)(C)C` [9k], the IC50 is 18.16 µg/mL (≈ 26.3 µM) with C. neoformans (48 h); more than 35.2 µg/mL with C. albicans; more than 35.2 µg/mL with C. glabrata; more than 35.2 µg/mL with C. parapsilosis; more than 35.2 µg/mL with C. krusei. Besides, the MIC in the test on C. neoformans (48 h) was 32.02 µg/mL (≈ 46.4 µM); against C. albicans it was more than 64.0 µg/mL; against C. glabrata it was more than 64.0 µg/mL; with C. parapsilosis it was more than 64.0 µg/mL; with C. krusei, more than 64.0 µg/mL.

`COC(=O)[C@H](Cc1ncn(Cc2cc(F)cc(F)c2)c1I)NC(=O)[C@H](Cc1c[nH]c2ccccc12)NC(=O)OC(C)(C)C` [9j]: the IC50 in the test with C. neoformans (48 h) was 17.73 µg/mL (≈ 25.1 µM); in the test with C. albicans, more than 35.2 µg/mL; in the test with C. glabrata, more than 35.2 µg/mL; in the test on C. parapsilosis, more than 35.2 µg/mL; with C. krusei, more than 35.2 µg/mL. Moreover, the MIC against C. neoformans (48 h) is 32.25 µg/mL (≈ 45.6 µM); in the test with C. albicans, more than 64.0 µg/mL; against C. glabrata, more than 64.0 µg/mL; in the test with C. parapsilosis, more than 64.0 µg/mL; in the test on C. krusei it was more than 64.0 µg/mL.

As for `COC(=O)[C@H](Cc1ncn(Cc2cccc(Cl)c2)c1I)NC(=O)[C@H](Cc1c[nH]c2ccccc12)NC(=O)OC(C)(C)C` [9l], the IC50 is 18.59 µg/mL (≈ 26.3 µM) with C. neoformans (48 h); more than 35.2 µg/mL in the test with C. albicans; more than 35.2 µg/mL in the test with C. glabrata; more than 35.2 µg/mL in the test with C. parapsilosis; more than 35.2 µg/mL with C. krusei. In addition, the MIC is 33.80 µg/mL (≈ 47.9 µM) against C. neoformans (48 h); more than 64.0 µg/mL in the test with C. albicans; more than 64.0 µg/mL against C. glabrata; more than 64.0 µg/mL against C. parapsilosis; more than 64.0 µg/mL against C. krusei.

`COC(=O)[C@H](Cc1ncn(Cc2ccccc2I)c1I)NC(=O)[C@H](Cc1c[nH]c2ccccc12)NC(=O)OC(C)(C)C` [9o]: the IC50 in the test on C. neoformans (48 h), in the test on C. albicans, in the test on C. glabrata, in the test on C. parapsilosis and in the test with C. krusei was more than 35.2 µg/mL in each case. Further, the MIC in the test with C. neoformans (48 h), in the test with C. albicans, against C. glabrata, in the test with C. parapsilosis and in the test on C. krusei was more than 64.0 µg/mL throughout.

With `COC(=O)[C@H](Cc1ncn(Cc2ccc([N+](=O)[O-])cc2)c1I)NC(=O)[C@H](Cc1c[nH]c2ccccc12)NC(=O)OC(C)(C)C` [9h], the IC50 with C. neoformans (48 h), in the test on C. albicans, with C. glabrata, in the test with C. parapsilosis and with C. krusei was more than 35.2 µg/mL throughout. The MIC in the test with C. neoformans (48 h), against C. albicans, against C. glabrata, in the test on C. parapsilosis and against C. krusei was more than 64.0 µg/mL each time.

With `CO[C@H]1/C=C/O[C@@]2(C)Oc3c(C)c(O)c4c(O)c(c(/C=N/N5CCN(C)CC5)c(O)c4c3C2=O)NC(=O)/C(C)=C\C=C\[C@H](C)[C@H](O)[C@@H](C)[C@@H](O)[C@@H](C)[C@H](OC(C)=O)[C@@H]1C` [Rifampicin, reference compound], the IC50 with E. faecalis (Enterococcus faecalis, E. faecalis, read-out: IC50) worked out at 1 µg/mL (≈ 1.22 µM); in the test with S. aureus (Staphylococcus aureus), 2 µg/mL (≈ 2.43 µM); in the test on S. pyogens (Streptococcus pyogenes, S. pyogens, read-out: IC50) it was 1 µg/mL (≈ 1.22 µM); in the test on E. coli (Escherichia coli), 1 µg/mL (≈ 1.22 µM); in the test with P. aeruginosa (Pseudomonas aeruginosa, P. aeruginosa, read-out: IC50), 16 µg/mL (≈ 19.4 µM). The MIC in the test with E. faecalis (Enterococcus faecalis, E. faecalis, read-out: MIC) was 2 µg/mL (≈ 2.43 µM); in the test on S. aureus (Staphylococcus aureus), 4 µg/mL (≈ 4.86 µM); with S. pyogens (Streptococcus pyogenes, S. pyogens, read-out: MIC), 2 µg/mL (≈ 2.43 µM); in the test on E. coli (Escherichia coli) it was 2 µg/mL (≈ 2.43 µM); in the test with P. aeruginosa (Pseudomonas aeruginosa, P. aeruginosa, read-out: MIC) it was 32 µg/mL (≈ 38.9 µM).

For the compound `COC(=O)[C@H](Cc1ncn(Cc2ccc(F)c(F)c2)c1I)NC(=O)[C@@H](N)Cc1c[nH]c2ccccc12` [10i], the IC50 in the test on C. neoformans (48 h) was 10.28 µg/mL (≈ 16.9 µM); in the test with C. albicans, more than 35.2 µg/mL; with C. glabrata, more than 35.2 µg/mL; in the test on C. parapsilosis, more than 35.2 µg/mL; in the test on C. krusei it was more than 35.2 µg/mL. Further, the MIC is 18.7 µg/mL (≈ 30.8 µM) against C. neoformans (C. neoformans, lowest test concentration with no detectable growth); more than 64.0 µg/mL in the test on C. albicans; more than 64.0 µg/mL against C. glabrata; more than 64.0 µg/mL against C. parapsilosis; more than 64.0 µg/mL in the test on C. krusei.

Regarding `COC(=O)[C@H](Cc1ncn(Cc2cccc(Br)c2)c1I)NC(=O)[C@H](Cc1c[nH]c2ccccc12)NC(=O)OC(C)(C)C` [9m], the IC50 in the test on C. neoformans (48 h) is 18.63 µg/mL (≈ 24.8 µM); in the test with C. albicans, more than 35.2 µg/mL; in the test on C. glabrata it was more than 35.2 µg/mL; with C. parapsilosis it was more than 35.2 µg/mL; in the test on C. krusei, more than 35.2 µg/mL. For the same compound, the MIC against C. neoformans (48 h) was 33.88 µg/mL (≈ 45.1 µM); in the test on C. albicans, more than 64.0 µg/mL; against C. glabrata, more than 64.0 µg/mL; in the test with C. parapsilosis it was more than 64.0 µg/mL; with C. krusei, more than 64.0 µg/mL.

Values taken from paper PMC9821961, “Ring-Modified Histidine-Containing Cationic Short Peptides Exhibit Anticryptococcal Activity by Cellular Disruption” (Molecules, 2022).
